Laboratory results taken from patent US20260193293A1, “PEPTIDES CAPABLE OF INHIBITING PROTEIN-PROTEIN INTERACTIONS AT GABAB1A SUBUNIT AND USES THEREOF” (UNIVERSITY OF COPENHAGEN, priority 2022, published 2026).
Read-outs that look alike come from different tables or passages of the source. Values belong to the compound of their own block, whether it stands above or below them. Non-standard residues stand in square brackets, D forms with d. Residues, ends and D or L forms follow the SMILES beside them. NMeW = CN[C@@H](Cc1c[nH]c2ccccc12)C(=O)O; NMeI = CC[C@H](C)[C@H](NC)C(=O)O; NMeE = CN[C@@H](CCC(=O)O)C(=O)O; NMeD = CN[C@@H](CC(=O)O)C(=O)O; NMeA = CN[C@@H](C)C(=O)O

Biological target: Sushi domains (SD1/2) protein
Experiment: Fluorescence polarization (FP) competition assay with AJAP-1probe, calculated Ki
Type: binding
Summary of the method: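 Competition against 25 nM TAMRA-labelled peptide probe binding SD1/2, in PBS pH 7.4 with 1% BSA at rt, read at 530/580 nm. IC50 from sigmoidal dose-response fits, at least triplicate; Ki calculated from IC50 using probe Kd from saturation binding.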

[1] = Table 12, deep mutational scanning validation variants of PIANPWT, read-out: Ki (nM) mean ± SEM
[2] = Table 9, Ala-, D-amino acids and N-methylation scans of PIANPWT, read-out: Ki (nM) mean ± SEM
[3] = Table 7, Ala-, D-amino acids and N-methylation scans of APPWT, read-out: Ki (nM) mean ± SEM
[4] = Table 11, deep mutational scanning validation variants of AJAP-1WT, read-out: Ki (nM) mean ± SEM
[5] = Table 8, Ala-, D-amino acids and N-methylation scans of AJAP-1WT, read-out: Ki (nM) mean ± SEM
[6] = Table 10, deep mutational scanning validation variants of APPWT, read-out: Ki (nM) mean ± SEM

Structure (SMILES): CC[C@H](C)[C@H](NC(=O)[C@H](Cc1c[nH]c2ccccc12)NC(=O)[C@H](CC(=O)O)NC(=O)[C@H](CC(=O)O)NC(=O)[C@H](CC(=O)O)NC(=O)[C@H](CCC(=O)O)NC(C)=O)C(=O)N[C@@H](CC(=O)O)C(=O)N[C@@H](Cc1c[nH]c2ccccc12)C(=O)NCC(=O)N1CCC[C@H]1C(=O)N[C@H](C(=O)N[C@@H](CO)C(=O)N[C@@H](CC(=O)O)C(=O)N[C@@H](CC(=O)O)C(=O)N[C@@H](CC(=O)O)C(=O)N[C@@H](CCC(=O)O)C(=O)N[C@@H](C)C(=O)N[C@@H](C)C(=O)N[C@@H](C)C(=O)N[C@@H](CCCCN)C(=O)N[C@@H](CCCNC(=N)N)C(=O)N[C@@H](CCCNC(=N)N)C(=O)N[C@@H](CCCNC(=N)N)C(=O)N[C@@H](CCCNC(=N)N)C(=O)N[C@@H](CCCNC(=N)N)C(=O)N[C@@H](CCCNC(=N)N)C(=O)N[C@@H](CCCNC(=N)N)C(=O)N[C@@H](CCCNC(=N)N)C(N)=O)[C@@H](C)O [Peptide 17-RL-R8] (Ac-EDDDWIDWGPTSDDDEAAAKRRRRRRRR-NH2)
Ki (CPP tagged peptides overview, SD1/2 binding affinity, mean ± SEM, n ≥ 3, read-out: Ki): 139 ± 2 nM | Ki (Table 14, CPPs tagged peptides, read-out: Ki (nM) mean ± SEM): 139 ± 2 nM

Structure (SMILES): CC[C@H](C)[C@@H](C(=O)N[C@H](C(=O)N[C@@H](Cc1c[nH]c2ccccc12)C(=O)NCC(=O)N1CCC[C@H]1C(=O)N[C@H](C(=O)N[C@H](C(=O)N[C@@H](CO)C(=O)N[C@@H](CCCNC(=N)N)C(=O)N[C@@H](CCC(=O)O)C(=O)N[C@@H](CC(=O)O)C(N)=O)C(C)C)[C@@H](C)O)C(C)C)N(C)C(=O)[C@H](C)NC(=O)[C@H](Cc1c[nH]c2ccccc12)NC(=O)[C@@H]1CCCN1C(C)=O [PWA(N-Me-I)VWGPTVSRED] (Ac-PWA[NMeI]VWGPTVSRED-NH2)
Ki [2]: 370 ± 5 nM

Structure (SMILES): CC[C@H](C)[C@H](NC(=O)[C@H](Cc1ccccc1)NC(=O)[C@H](Cc1c[nH]c2ccccc12)NC(=O)[C@@H]1CCCN1C(C)=O)C(=O)N[C@H](C(=O)N[C@@H](Cc1c[nH]c2ccccc12)C(=O)NCC(=O)N1CCC[C@H]1C(=O)N[C@H](C(=O)N[C@H](C(=O)N[C@@H](CO)C(=O)N[C@@H](CCCNC(=N)N)C(=O)N[C@@H](CCC(=O)O)C(=O)N[C@@H](CC(=O)O)C(N)=O)C(C)C)[C@@H](C)O)C(C)C [PWFIVWGPTVSRED] (Ac-PWFIVWGPTVSRED-NH2)
Ki [1]: 461 ± 10 nM

Structure (SMILES): CC(=O)N1CCC[C@H]1C(=O)N[C@@H](Cc1c[nH]c2ccccc12)C(=O)N[C@@H](C)C(=O)N[C@@H](C)C(=O)N[C@H](C(=O)N[C@@H](Cc1c[nH]c2ccccc12)C(=O)NCC(=O)N1CCC[C@H]1C(=O)N[C@H](C(=O)N[C@H](C(=O)N[C@@H](CO)C(=O)N[C@@H](CCCNC(=N)N)C(=O)N[C@@H](CCC(=O)O)C(=O)N[C@@H](CC(=O)O)C(N)=O)C(C)C)[C@@H](C)O)C(C)C [PWAAVWGPTVSRED] (Ac-PWAAVWGPTVSRED-NH2)
Ki [2]: 46600 ± 4840 nM

Structure (SMILES): CC[C@H](C)[C@H](NC(=O)[C@H](C)NC(=O)[C@H](Cc1c[nH]c2ccccc12)NC(=O)[C@@H]1CCCN1C(C)=O)C(=O)N[C@H](C(=O)N(C)[C@@H](Cc1c[nH]c2ccccc12)C(=O)NCC(=O)N1CCC[C@H]1C(=O)N[C@H](C(=O)N[C@H](C(=O)N[C@@H](CO)C(=O)N[C@@H](CCCNC(=N)N)C(=O)N[C@@H](CCC(=O)O)C(=O)N[C@@H](CC(=O)O)C(N)=O)C(C)C)[C@@H](C)O)C(C)C [PWAIV(N-Me-W)GPTVSRED] (Ac-PWAIV[NMeW]GPTVSRED-NH2)
Ki [2]: 636 ± 6 nM

Structure (SMILES): CC[C@H](C)[C@H](NC(=O)[C@H](Cc1ccccc1)NC(=O)[C@H](CCC(=O)O)NC(=O)[C@@H](NC(=O)[C@H](CCC(=O)O)NC(C)=O)[C@@H](C)O)C(=O)N[C@@H](C)C(=O)N[C@@H](Cc1c[nH]c2ccccc12)C(=O)NCC(=O)N1CCC[C@H]1C(=O)N[C@H](C(=O)NCC(=O)N[C@@H](CC(=O)O)C(=O)N[C@@H](CCC(=O)O)C(=O)N[C@H](C(N)=O)C(C)C)[C@@H](C)O (Ac-ETEFIAWGPTGDEV-NH2)
Ki [4]: 40 ± 2 nM

Structure (SMILES): CC[C@H](C)[C@H](NC(=O)[C@H](Cc1ccccc1)NC(=O)[C@H](CCC(=O)O)NC(=O)[C@@H](NC(=O)[C@H](CCC(=O)O)NC(C)=O)[C@@H](C)O)C(=O)N[C@@H](C)C(=O)N[C@@H](Cc1c[nH]c2ccccc12)C(=O)NCC(=O)N1CCC[C@H]1C(=O)N[C@H](C(=O)NCC(=O)N[C@@H](CC(=O)O)C(=O)N(C)[C@@H](CCC(=O)O)C(=O)N[C@@H](CC(=O)O)C(N)=O)[C@@H](C)O (Ac-ETEFIAWGPTGD[NMeE]D-NH2)
Ki [5]: 31 ± 1 nM

Structure (SMILES): CC[C@H](C)[C@H](NC(=O)[C@H](C)NC(=O)[C@H](Cc1c[nH]c2ccccc12)NC(=O)[C@@H]1CCCN1C(=O)[C@H](Cc1ccc(O)cc1)NC(=O)[C@H](CCC(N)=O)NC(=O)[C@H](CO)NC(=O)[C@H](CO)NC(C)=O)C(=O)N[C@H](C(=O)N[C@@H](Cc1c[nH]c2ccccc12)C(=O)NCC(=O)N1CCC[C@H]1C(=O)N[C@H](C(=O)N[C@H](C(=O)N[C@@H](CO)C(=O)N[C@@H](CCCNC(=N)N)C(=O)N[C@@H](CCC(=O)O)C(=O)N[C@@H](CC(=O)O)C(=O)NCC(N)=O)C(C)C)[C@@H](C)O)C(C)C (Ac-SSQYPWAIVWGPTVSREDG-NH2)
Ki (Table 6, elongation and truncation scan of PIANP binding epitope, read-out: Ki (nM) mean ± SEM): 29900 ± 2000 nM

Structure (SMILES): CC[C@H](C)[C@H](NC(=O)[C@H](Cc1ccccc1)NC(=O)[C@H](CCC(=O)O)NC(=O)[C@@H](NC(=O)[C@H](CCC(=O)O)NC(=O)[C@@H](NC(C)=O)[C@@H](C)O)[C@@H](C)O)C(=O)N[C@@H](C)C(=O)N[C@@H](Cc1c[nH]c2ccccc12)C(=O)NCC(=O)N1CCC[C@H]1C(=O)N[C@H](C(=O)NCC(N)=O)[C@@H](C)O (Ac-TETEFIAWGPTG-NH2)
Ki (Table 5, elongation and truncation scan of AJAP-1 binding epitope, read-out: Ki (nM) mean ± SEM): 248 ± 7 nM

Structure (SMILES): CC[C@H](C)[C@H](NC(=O)[C@H](Cc1ccc(OCc2ccccc2)cc1)NC(=O)[C@H](CC(=O)O)NC(=O)[C@H](CC(=O)O)NC(=O)[C@H](CC(=O)O)NC(=O)[C@H](CCC(=O)O)NC(C)=O)C(=O)N[C@@H](CC(=O)O)C(=O)N[C@@H](Cc1c[nH]c2ccccc12)C(=O)N[C@@H](Cc1ccc(O)cc1)C(=O)N[C@@H](CC(=O)O)C(=O)N[C@@H](CO)C(=O)N[C@@H](CC(=O)O)C(=O)N[C@@H](CC(=O)O)C(=O)N[C@@H](CC(=O)O)C(N)=O [Peptide 33]
Ki (Table 1, affinity maturation, mean ± SEM, n ≥ 3, read-out: Ki): 9.3 ± 0.2 nM | Ki (Table 16, ncAAs incorporated peptides, read-out: Ki (nM) mean ± SEM): 9.3 ± 0.2 nM

Structure (SMILES): CC[C@H](C)[C@H](NC(=O)[C@H](Cc1ccccc1)NC(=O)[C@H](CCC(=O)O)NC(=O)[C@@H](NC(=O)[C@H](CCC(=O)O)N(C)C(C)=O)[C@@H](C)O)C(=O)N[C@@H](C)C(=O)N[C@@H](Cc1c[nH]c2ccccc12)C(=O)NCC(=O)N1CCC[C@H]1C(=O)N[C@H](C(=O)NCC(=O)N[C@@H](CC(=O)O)C(=O)N[C@@H](CCC(=O)O)C(=O)N[C@@H](CC(=O)O)C(N)=O)[C@@H](C)O [(N-Me-E)TEFIAWGPTGDED] (Ac-[NMeE]TEFIAWGPTGDED-NH2)
Ki [5]: 35 ± 1 nM

Further lines, results first:

Ki [1]: 1300 ± 16 nM
Structure (SMILES): CC[C@H](C)[C@H](NC(=O)[C@H](C)NC(=O)[C@H](Cc1c[nH]c2ccccc12)NC(=O)[C@@H]1CCCN1C(C)=O)C(=O)N[C@@H](CC(=O)O)C(=O)N[C@@H](Cc1c[nH]c2ccccc12)C(=O)NCC(=O)N1CCC[C@H]1C(=O)N[C@H](C(=O)N[C@H](C(=O)N[C@@H](CO)C(=O)N[C@@H](CCCNC(=N)N)C(=O)N[C@@H](CCC(=O)O)C(=O)N[C@@H](CC(=O)O)C(N)=O)C(C)C)[C@@H](C)O [PWAIDWGPTVSRED] (Ac-PWAIDWGPTVSRED-NH2)

Ki [3]: 403 ± 14 nM
Structure (SMILES): CC(=O)N[C@@H](CCC(=O)O)C(=O)N[C@@H](CC(=O)O)C(=O)N[C@@H](CC(=O)O)C(=O)N[C@@H](CO)C(=O)N[C@@H](CC(=O)O)C(=O)N[C@H](C(=O)N[C@@H](Cc1c[nH]c2ccccc12)C(=O)N[C@@H](Cc1c[nH]c2ccccc12)C(=O)NCC(=O)NCC(=O)N[C@@H](C)C(=O)N(C)[C@@H](CC(=O)O)C(=O)N[C@H](C(=O)N[C@@H](CC(=O)O)C(N)=O)[C@@H](C)O)C(C)C (Ac-EDDSDVWWGGA[NMeD]TD-NH2)

Ki [3]: 704 ± 11 nM
Structure (SMILES): CC(=O)N[C@@H](CCC(=O)O)C(=O)N[C@@H](CC(=O)O)C(=O)N[C@@H](CC(=O)O)C(=O)N[C@@H](CO)C(=O)N[C@@H](CC(=O)O)C(=O)N[C@H](C(=O)N[C@@H](Cc1c[nH]c2ccccc12)C(=O)N[C@@H](Cc1c[nH]c2ccccc12)C(=O)NCC(=O)NCC(=O)N(C)[C@@H](C)C(=O)N[C@@H](CC(=O)O)C(=O)N[C@H](C(=O)N[C@@H](CC(=O)O)C(N)=O)[C@@H](C)O)C(C)C (Ac-EDDSDVWWGG[NMeA]DTD-NH2)

Ki [4]: 18 ± 1 nM
Structure (SMILES): CC[C@H](C)[C@H](NC(=O)[C@H](Cc1ccc(O)cc1)NC(=O)[C@H](CCC(=O)O)NC(=O)[C@@H](NC(=O)[C@H](CCC(=O)O)NC(C)=O)[C@@H](C)O)C(=O)N[C@@H](C)C(=O)N[C@@H](Cc1c[nH]c2ccccc12)C(=O)NCC(=O)N1CCC[C@H]1C(=O)N[C@H](C(=O)NCC(=O)N[C@@H](CC(=O)O)C(=O)N[C@@H](CCC(=O)O)C(=O)N[C@@H](CC(=O)O)C(N)=O)[C@@H](C)O [ETEYIAWGPTGDED, Ac-ETEYIAWGPTGDED-NH2] (Ac-ETEYIAWGPTGDED-NH2)

Ki [6]: 1520 ± 53 nM
Structure (SMILES): CC(=O)N[C@@H](CCCCN)C(=O)N[C@@H](CC(=O)O)C(=O)N[C@@H](CC(=O)O)C(=O)N[C@@H](CO)C(=O)N[C@@H](CC(=O)O)C(=O)N[C@H](C(=O)N[C@@H](Cc1c[nH]c2ccccc12)C(=O)N[C@@H](Cc1c[nH]c2ccccc12)C(=O)NCC(=O)NCC(=O)N[C@@H](C)C(=O)N[C@@H](CC(=O)O)C(=O)N[C@H](C(=O)N[C@@H](CC(=O)O)C(N)=O)[C@@H](C)O)C(C)C (Ac-KDDSDVWWGGADTD-NH2)

Ki [6]: 401 ± 7 nM
Structure (SMILES): CC[C@H](C)[C@H](NC(=O)[C@H](CC(=O)O)NC(=O)[C@H](CO)NC(=O)[C@H](CC(=O)O)NC(=O)[C@H](CC(=O)O)NC(=O)[C@H](CCC(=O)O)NC(C)=O)C(=O)N[C@@H](Cc1c[nH]c2ccccc12)C(=O)N[C@@H](Cc1c[nH]c2ccccc12)C(=O)NCC(=O)NCC(=O)N[C@@H](C)C(=O)N[C@@H](CC(=O)O)C(=O)N[C@H](C(=O)N[C@@H](CC(=O)O)C(N)=O)[C@@H](C)O (Ac-EDDSDIWWGGADTD-NH2)
